Laboratory results: patent US4927843A (priority 1986, dated 1990)
“Also recorded” adds a separate entry of the source.

Legend:
[1] = toxicity to animals: Lethal Dose-50 given ip to ICR mice; settings: mouse, in vivo, ICR mice 20 g, one injection, average of three separate trials, Table 3
Description: (§1) The above mentioned thiosemicarbazone compounds were finally powdered and suspended in dimethylsulfoxid (DMSO)-(Merck) to get stock solutions of 10 mg/ml. Stock solutions were diluted to a final volume of 0.25 ml DMSO to obtain the following concentrations: 2,5 mg, 2 mg; […], 1 mg, in 0.25 ml final volume.
(§2) Each drug concentration of the 4 thiosemicarbazone derivatives was injected in a sterile manner intraperitonally (iP) to a group of 10 ICR mice, each weighing 20 g. After one injection the mice were followed for the highest non-lethal dose, and for the lethal dose. The results are an average of three separate trials.

[2] = toxicity to animals: highest non-lethal dose given ip to ICR mice; settings: mouse, in vivo
Description: as §1, §2

[3] = system: Abelson-Moloney murine leukemia virus (Ab-MoMuLV) induced B-lymphoma; test: antiviral effect in mice against B-lymphoma induced by Ab-MoMuLV; assay type: in vivo; settings: daily dose of 2 μg/4 g weight for 10 consecutive days, immediately after infection, versus untreated mice
Description: One of the three compounds, namely M-IBDET was examined as to its efficacy against the Abelson-Moloney murine leukemia virus (Ab-MoMuLV). Injection of susceptible mice with B-cell lymphocytes infected with Ab-MoMuLV usually results in induction of B-type lymphoma within 3 weeks. Treatment of mice immediately after infection with MoMuLV infected cells with M-IBDET at a daily dose of 2 μg/4 g weight for 10 consecutive days caused a delay of 3 weeks in the appearance of the lymphoma in the drug-treated mice as compared with untreated mice.

[4] = system: Moloney leukemia virus; settings: literature refs (1-3); cited from earlier work
[5] = system: viruses listed in Table I; assay type: cell-based, Mouse, Avian, Human cells; settings: 34 μM, 18 hrs (such conditions of treatment)
[6] = system: pox-virus family (smallpox); settings: oral, 40 mg/kg for 4 consecutive days; cited from earlier work
[7] = system: viruses belonging to the Retroviridae family; test: inhibition of virus production of Retroviridae in infected cells (summary); assay type: cell-based; settings: tested by applicant
Description: The thiosemicarbazone compounds described in this invention, were found by us to be specific inhibitors of viruses belonging to the Retroviridae family. Results obtained in our laboratory indicate that amounts ranging from 17 μM to 34 μM of the thiosemicarbazones suppressed specifically the production of viruses belonging to the Retroviridae family. The extent of inhibition of virus production in the infected cells was 75-85%. This inhibition was confirmed by various parameters of virus assay such as: reverse transcriptase activity, virus infectivity and contents of viral structural proteins.

[8] = system: human immunodeficiency virus--HIV; test: inhibition of HIV production in chronically infected H9 and HuT-78 cell lines; assay type: cell-based, human cell lines; settings: evaluated in a similar manner (2 hrs, then 1:10 dilution, 24 hrs)
Description: The thiosemicarbazone compounds were examined for their inhibitory effect on the human immunodeficiency virus--HIV in the following chronically infected cell lines:
H9 cell line--A human established T-cell line chronically infected with HIV;
HuT-78 cell line--A human cell line chronically infected with ARV2 (HIV).
concentrations of 5×10^6 cells per ml were incubated with 17-34 μM of the different thiosemicarbazones. Virus production was assayed in the drug-treated and untreated cells after 7 hrs of exposure. An 85% inhibition of virus production was found in the drug-treated cultures as compared to control untreated cultures. Virus production was determined by assaying various virus parameters such as reverse transcriptase activity, plaque forming units (PFU) and viral structtural protein content.
The compounds were also tested by employing a different way of treatment of the HIV infected cultures: 5×10^6 infected cells were incubated with 17-34 μM of the drug for 2 hrs. Subsequently a dilution of 1:10 of the medium was performed to final concentration of 1.7-3.4 μM of the drug. The cultures were further incubated for 24 hrs in diluted medium and virus production was assayed. The extent of inhibition of HIV production achieved by the described treatment was 75-85%. M-IBT was evaluated in a similar manner.

[9] = system: EIAV; test: inhibition of EIAV production in chronically infected fibroblast cells; assay type: cell-based; settings: 2 hrs then 1:10 dilution, further 24 hours
Description: Fibroblast cells of […] chronically infected with EIAV were incubated for 2 hrs with concentrations ranging from 17 μM to 34 μM of the described thiosemicarbazone compounds. Subsequently the medium was diluted 1:10 to obtain a final concentration of ranging from 1.7 to 3.4 μM. The cultures were further incubated for 24 hours and virus production was assayed in drug-treated and untreated cells. The extent of inhibition of virus production in the treated cultures was 70-80%. M-IBT was tested and found to be ineffective.

[10] = ICR mice 20 g, one injection, average of three separate trials, Table 2

Structure (SMILES) | LD50 [1] | MTD [2, 10] | delay in the appearance of the lymphoma [3] | inhibition of production of Moloney leukemia virus [4] | effectiveness on virus infectivity [5] | clinical effectiveness against pox virus / smallpox [6] | effectiveness against viruses of the Retroviridae [7] | MTD ([2]; ICR mice 20 g-weight) | inhibition of HIV production [8] | effectiveness against EIAV [9]
C=CCN1C(=O)C(=NNC(=S)N(CC)CC)c2ccccc21 [A-IBDET, 1-allylisatin-β-4':4'-diethylthiosemicarbazone] | 175 mg/kg | 100 mg/kg | – | – | – | – | – | – | – | –
C=CCN1C(=O)C(=NNC(=S)N(C)C)c2ccccc21 [A-IBDMT, 1-allylisatin-β-4':4'-dimethylthiosemicarbazone] | 175 mg/kg | 100 mg/kg | – | – | – | – | – | – | – | –
CCN(CC)C(=S)NN=C1C(=O)N(C)c2ccccc21 [M-IBDET, 1-methylisatin-β-4':4'-diethylthiosemicarbazone] | 125 mg/kg | 50 mg/kg | 3 weeks | inhibits the production of Moloney leukemia virus | – | – | – | – | – | –
CN1C(=O)C(=NNC(N)=S)c2ccccc21 [M-IBT, N-methylisatine 3-thiosemicarbazone] | 125 mg/kg | – | – | – | not effective | effective in the treatment of humans against smallpox; also recorded: effective against subjects known to have contact with smallpox; also recorded: effective results; also recorded: clinically effective | ineffective | 50 mg/kg | No inhibition could be detected | ineffective
